Assay results: patent US9012439B2, “Use of electrophilic compounds for inducing platelet production or maintaining platelet function” (University of Rochester, priority 2007, dated 2015)

Columns and labels:
[1] = test system: primary human megakaryocytes; assay: Platelet production from human cord blood CD34+-derived megakaryocytes; assay type: cell-based; details: 10 μM, 24 h
Procedure: Human CD34+ cord blood cells were obtained from the National Disease Research Interchange (NDRI, Philadelphia, Pa.). Cells were plated at 2.5×10^5 cells per well in a 12-well plate and cultured in serum-free medium as previously described (Zeuner et al., “Chemotherapy-induced Thrombocytopenia Derives from the Selective Death of Megakaryocyte Progenitors and Can Be Rescued by Stem Cell Factor,” Cancer Res 67:4767-4773 (2007), which is hereby incorporated by reference in its entirety) and supplemented with 100 ng/mL of rhTPO. After 14 days in culture, megakaryocytes were identified by staining with a CD61-FITC antibody and analyzed on a BD Biosciences FACSCalibur flow cytometer. Data were analyzed using FlowJo software (Treestar, Ashland, Oreg.). Cell images were captured using an inverted microscope (Olympus IX81). Platelets were isolated from megakaryocytes by centrifugation at 150 xg for 10 min. Supernatants underwent sequential centrifugation (500 xg for 10 min and 1000×g for 10 min). The remaining platelet pellet was fixed then permeabilized with a CD61 or CD41 antibody. 7-AAD (BD Pharmingen) was added for 10 min before analyzing the cells by flow cytometry. Platelets were identified using three well-described parameters (Patel et al., “The Biogenesis of Platelets from Megakaryocyte Proplatelets,” J Clin Invest 115:3348-3354 (2005); Breton-Gorius et al., “Expression of Platelet Proteins During the In Vitro and In Vivo Differentiation of Megakaryocytes and Morphological Aspects of Their Maturation,” Semin Hematol 23:43-67 (1986); Ogura et al., “Establishment of a Novel Human Megakaryoblastic Leukemia Cell Line, MEG-01, With Positive Philadelphia Chromosome,” Blood 66:1384-1392 (1985) and Franks et al., “A Fluorescence Microscopy Method for Quantifying Levels of Prostaglandin Endoperoxide H Synthase-1 and CD-41 in MEG-01 Cells,” Biol Proced Online 3:54-63 (2001), each of which is hereby incorporated by reference in its entirety), size (using normal human platelets as a control), presence of CD61 or CD41 and lack of DNA as determined by the absence of 7-AAD staining Ten thousand platelet events were collected and platelets were quantified by rate (platelet events/second) (Chung et al., “Platelet Activation in Acute, Decompensated Congestive Heart Failure,” Thromb Res 120:709-713 (2007), which is hereby incorporated by reference in its entirety.

PPARγ = biological target: T1, PPARγ (Homo sapiens, UniProt P37231); assay: PPARγ gene reporter analysis (PPRE-luciferase) in Meg-01 cells; assay type: cell-based; details: 10 μM, 24 h after ligand treatment
T1 construct: Meg-01 cells were plated at a density of […] cells per well in a E-well plate and transfected; endogenous in cells; host or cells: Meg-01 cells
T1 sequence (P37231 1-505): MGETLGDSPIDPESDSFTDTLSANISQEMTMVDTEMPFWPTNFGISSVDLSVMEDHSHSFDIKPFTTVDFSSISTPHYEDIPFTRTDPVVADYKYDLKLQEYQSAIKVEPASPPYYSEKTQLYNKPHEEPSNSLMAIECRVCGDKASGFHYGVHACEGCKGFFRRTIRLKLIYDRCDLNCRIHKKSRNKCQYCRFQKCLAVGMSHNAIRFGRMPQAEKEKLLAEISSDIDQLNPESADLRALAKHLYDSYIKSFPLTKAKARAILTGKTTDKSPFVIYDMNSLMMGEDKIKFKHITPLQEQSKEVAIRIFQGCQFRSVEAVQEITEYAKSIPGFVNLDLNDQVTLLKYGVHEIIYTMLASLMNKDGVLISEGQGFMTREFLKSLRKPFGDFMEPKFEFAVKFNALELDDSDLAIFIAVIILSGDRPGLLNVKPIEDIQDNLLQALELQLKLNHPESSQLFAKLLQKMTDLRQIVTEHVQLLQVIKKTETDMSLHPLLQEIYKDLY
Procedure: Meg-01 cells were plated at a density of […] cells per well in a […] and transfected, using lipofectamine LTX (Invitrogen), with a PPRE (Peroxisome Proliferator Response Element)-luciferase reporter plasmid containing three copies of the ACO-PPRE (a gift from Dr. B. Seed, Massachusetts General Hospital, Boston, Mass.). […] Transfection efficiency was determined by transfecting the cells with green fluorescent protein (GFP) plasmid and determining the percentage of cells that were GFP+ by flow cytometry. […] Luciferase activity was assessed 24 h after ligand treatment using the Promega Luciferase Assay System, and relative light units (RLU) were determined using a Lumicount Microplate Luminometer (Packard Instrument Co., Meriden, Conn.).

[2] = test system: mouse megakaryocyte progenitors (Meg-CFC); assay: Megakaryocyte progenitor (Meg-CFC) assay on bone marrow of treated mice; assay type: in vivo
Procedure: Primary mouse bone marrow cells were suspended in IMDM at a concentration of 8×10^6 cells/mL. Two-hundred thousand cells were plated in IMDM supplemented with 20% BIT9500, 0.2% 2-mercaptoethanol, 2% Glutamax, and 20% Cellgro-H20 (Mediatech, Herndon, Va.) and cultured with rhTPO (50 ng/mL), IL-3 (10 ng/mL) (Preprotech, Rocky Hill, N.J.), IL-6 (20 ng/mL) (Preprotech), IL-11 (Preprotech) (50 ng/mL), and collagen at 37° for 7 days (Tober et al., “The Megakaryocyte Lineage Originates from Hemangioblast Precursors and is an Integral Component Both of Primitive and of Definitive Hematopoiesis,” Blood 109:1433-1441 (2007), which is hereby incorporated by reference in its entirety). Collagen gels were dehydrated, fixed, and labeled with GPIbβ and GPV, modified by ABC (Vector Labs, Burlingame, Calif.), and developed in Vector Red (Vector Labs). Meg-CFC were defined by their ability to generate colonies containing at least three megakaryocytes.

[3] = mice injected 1 mg/kg for two consecutive days, 7 days of culture

With `CCCCCC=CC=C1C(=O)C=C[C@@H]1CC=CCCCC(=O)O` [15d-PGJ2, 15-deoxy-Δ^12,14 prostaglandin J2] the “number of platelets generated from human megakaryocytes” value ([1]; CD61+ cells from cord blood CD34+ cells) was “doubled”, the proplatelet formation ([1]; human megakaryocytes, microscopy) was “induced proplatelet formation” and the “PPARγ activation (PPRE-luciferase activity)” value (PPARγ) was “activated PPARγ”. For the same compound, the megakaryocyte number [2] was “failed to increase megakaryocyte number”, the “megakaryocyte colony number (Meg-CFC)” value [2, 3] was “did not influence megakaryocyte colony number or colony size” and the “megakaryocyte colony size (Meg-CFC)” value [2, 3] was “did not influence megakaryocyte colony number or colony size”. For the same compound, the “percentage of megakaryocytes producing proplatelets” value [2, 3] was “significantly augmented the percentage of megakaryocytes producing proplatelets”.
